Measurements published in patent publication US6566140B2, “Inhibition of coagulation in blood and blood products” (University of Vermont and State Agriculture College, priority 1998, dated 2003).
Several values for one entry are separate records, joined by “and”; a condition that tells them apart may be missing. Equal entries are not always repeated. Entries after “also recorded” stand apart in the source; their conditions may differ.

Legend:
[1] = system: tissue factor initiated clotting in whole blood; assay: tissue factor dependent clotting assay in minimally altered whole blood, contact pathway suppressed with CTI, Hemochron ACT instrument; assay type: cell-based, human
From the text: This assay uses an anti-coagulation sufficient amount of CTI to inhibit clotting in minimally altered whole blood. The assay is more particularly referred to herein as “tissue factor dependent clotting assay” or similar phrase. The assay is particularly useful for monitoring coagulation in whole or minimally altered whole blood. As an example, the assay is especially useful as a novel bedside tool that permits improved therapuetic assessment including standard antithrombotic and antiplatelet therapies. The assay should also facilitate improved dose selection, titration and monitoring of multicomponent antithrombotic, antiplatelet, and fibrinolytic treatment.
Blood samples were obtained from healthy individuals and the contact pathway of coagulation was inhibited with corn trypsin inhibitor(a specific factor XIIa inhibitor without effect on other coagulation factors.). Clotting was initiated with relipidated tissue factor and detected with a Hemochron ACT instrument. Results were reproducible with samples from 20 healthy volunteers (mean time to clot=118±9 seconds). In other studies, blood was exposed to pharmacologic concentrations of antithrombotic and antiplatelet agents in vitro. […] Additive effects of antiplatelet agents were readily detectable in contrast to the case with aPTT assays. Thus, addition of 3 μg/ml abciximab to 0.1 anti-IIa/Xa U/ml of heparin and to 0.4 anti-Xa U/ml of enoxaparin prolonged the times to clot by 62 and 52 seconds, respectively (p<0.05 for each).
Blood was harvested between 0900 and 1200 hours. Phlebotomies were performed with 19 gauge butterfly needles and a two syringe technique with which the first three ml of blood were discarded. Blood samples were drawn into syringes containing corn trypsin inhibitor (CTI, Enzyme Research Laboratories, South Bend, Ind.) alone in concentrations ranging from 32 to 300 μg/ml or in combination with selected pharmacologic concentrations of heparin (0.1, 0.25 and 0.4 anti-IIa/Xa U/ml), enoxaparin (0.4 and 0.8 anti-Xa U/ml, Rhone-Poulenc Rorer), hirudin ([…], Sigma), recombinant tick anticoagulant peptide (rTAP, 0.4 anti-Xa U/ml, kindly provided by Corvass International), or abciximab (3 μg/ml, Eli Lilly). The concentrations of heparin, enoxaparin and abciximab were chosen to simulate those attained in clinical practice and equivalent anti-IIa and anti-Xa concentrations of hirudin and rTAP -were chosen. Final volumes were 1 part anticoagulant to 9 parts blood.
A 400 μl aliguot of blood was added to a K-resin ACT tube kindly provided by International Technidyne without the glass beads traditionally used to activate the contact pathway. Lipidated tissue factor (1-60 pM, American Diagnostica, Greenwich, Conn.) was added to K-resin tubes before addition of blood.
The K-resin tubes containing tissue factor and blood were placed promptly in a Hemochron ACT instrument. The time to clot was detected by the displacement of a dependent magnet within the rotating tube when fibrin strands formed. The blood was maintained at 37° C. throughout the assay procedure.

aPTT = aPTT of blood exposed to antithrombotic and antiplatelet agents; assay type: biochemical, human
Procedure: Blood was harvested between 0900 and 1200 hours. Phlebotomies were performed with 19 gauge butterfly needles and a two syringe technique with which the first three ml of blood were discarded. […] The concentrations of heparin, enoxaparin and abciximab were chosen to simulate those attained in clinical practice and equivalent anti-IIa and anti-Xa concentrations of hirudin and rTAP -were chosen. Final volumes were 1 part anticoagulant to 9 parts blood.

[2] = abciximab 3 μg/ml added to 0.1 anti-IIa/Xa U/ml heparin
[3] = abciximab 3 μg/ml added to 0.4 anti-Xa U/ml enoxaparin

With enoxaparin the “effect on the time to clot” value ([1]; enoxaparin 0.4 and 0.8 anti-Xa U/ml, 200 μg/ml CTI, 20 pM tissue factor) was “increased with increasing concentrations”, the “effect on the time to clot” value ([1]; enoxaparin 0.4 and 0.8 anti-Xa U/ml, 200 μg/ml CTI, 20 pM tissue factor, listed as Enoxaparin) was “prolonged” and the “increase of the time to clot” value ([1]; enoxaparin 0.4 anti-Xa U/ml) was 46 s. The “effect on the aPTT” value (aPTT; enoxaparin 0.4 and 0.8 anti-Xa U/ml) was “increased with increasing concentrations”, the “effect on the aPTT” value (aPTT; enoxaparin 0.4 and 0.8 anti-Xa U/ml, listed as Enoxaparin) was “prolonged” and the “increase of the aPTT” value (aPTT; enoxaparin 0.4 anti-Xa U/ml) was 15 s.

In the case of heparin, the “increase of the time to clot” value ([1]; heparin 0.1 anti-IIa/Xa U/ml) is reported as 41 s, the “effect on the time to clot” value ([1]; heparin 0.25 and 0.4 anti-IIa/Xa U/ml, 200 μg/ml CTI, 20 pM tissue factor) is reported as “prolonged with increasing concentrations” and the “effect on the time to clot” value ([1]; heparin 0.25 and 0.4 anti-IIa/Xa U/ml, 200 μg/ml CTI, 20 pM tissue factor, listed as Heparin) is reported as “prolonged”. For the same molecule, the “increase of the aPTT” value (aPTT; heparin 0.1 anti-IIa/Xa U/ml) was 34 s, the “effect on the aPTT” value (aPTT; heparin 0.25 and 0.4 anti-IIa/Xa U/ml) was “prolonged with increasing concentrations” and the “effect on the aPTT” value (aPTT; heparin 0.25 and 0.4 anti-IIa/Xa U/ml, listed as Heparin) was “prolonged”.

With hirudin the “effect on the time to clot” value ([1]; hirudin 0.4 and 0.8 anti-IIa U/ml, 200 μg/ml CTI, 20 pM tissue factor) was “prolonged the time to clot at each concentration tested”, the “prolongation of the time to clot” value ([1]; hirudin 0.4 anti-IIa U/ml, 200 μg/ml CTI, tissue factor initiated) was 21 s and the “prolongation of the time to clot” value ([1]; hirudin 0.8 U/ml, 200 μg/ml CTI, 20 pM tissue factor) was 37 s. The “prolongation of the aPTT” value (aPTT; hirudin 0.4 anti-IIa U/ml) was 3 s, the “effect on the aPTT” value (aPTT; hirudin 0.4 anti-IIa U/ml (versus 0.8 U/ml)) was “significantly prolonged only with the higher concentration; also recorded: detected only with 0.8 U/ml; also recorded: not affected” and the “effect on the aPTT” value (aPTT; hirudin 0.4 anti-IIa U/ml (versus 0.8 U/ml), listed as Hirudin) was “without prolonging the aPTT”. For the same molecule, the “prolongation of the aPTT” value (aPTT; hirudin 0.8 U/ml) was 16 s.

For “rTAP: recombinant tick anticoagulant peptide, a specific inhibitor of factor Xa (YNRLCIKPRDWIDECDSNEGGERAYFRNGKGGCDSFWICPEDHTGADYYSSYRDCFNACI; UniProt P17726 1-60, looked up)”, the “effect on the time to clot” value ([1]; rTAP 0.4 anti-Xa U/ml, 200 μg/ml CTI, 20 pM tissue factor) was “prolonged the time to clot”, the “prolongation of the time to clot” value ([1]; rTAP 0.4 anti-Xa U/ml, 200 μg/ml CTI, tissue factor initiated) was 229 s and the “effect on the aPTT” value (aPTT; rTAP 0.4 anti-Xa U/ml) was “no effect; also recorded: not affected”. For the same molecule, the “effect on the aPTT” value (aPTT; rTAP 0.4 anti-Xa U/ml, listed as tick anticoagulant peptide) was “without prolonging the aPTT” and the “prolongation of the aPTT” value (aPTT; tick anticoagulant peptide 0.4 anti-Xa U/ml) was 3 s.

B1: abciximab (antibody, chains of the INN, looked up, V domains shown)
VH: EVQLQQSGTVLARPGASVKMSCEASGYTFTNYWMHWVKQRPGQGLEWIGAIYPGNSDTSYIQKFKGKAKLTAVTSTTSVYMELSSLTNEDSAVYYCTLYDGYYVFAYWGQGTLVTVSA
VL: EIVLTQSPVTLSVTPGDSVSLSCRASRDISNNLHWFQQTSHESPRLLIKYASQSMSGIPSRFSGSGSGTDFTLSINSVETEDFGMYFCQQTNSWPYTFGGGTKLEIK
modifications: Fab
notes: commercially available monoclonal antibody against platelet glycoprotein gpIIb-IIIa
For B1, the “effect of the combination on the time to clot” value ([1]; 0.1 anti-IIa U/ml heparin with 3 μg/ml abciximab, 200 μg/ml CTI, 20 pM tissue factor) was “prolonged the time to clot compared with heparin alone”, the “effect of the combination on the time to clot” value ([1]; 0.4 anti-Xa U/ml enoxaparin with 3 μg/ml abciximab, 200 μg/ml CTI, 20 pM tissue factor) was “prolonged the time to clot compared with enoxaparin alone” and the “further prolongation of the time to clot compared with heparin alone” value [1, 2] was 62 s and 61 s. For the same molecule, the “further prolongation of the time to clot compared with enoxaparin alone” value [1, 3] was 52 s, the “prolongation of the time to clot by the combination” value ([1]; abciximab 3 μg/ml and heparin in combination) was 102 s and the “effect on the aPTT of adding abciximab to heparin” value (aPTT; [2]) was “not affected; also recorded: did not prolong further the aPTT; also recorded: did not affect the aPTT”. For the same molecule, the “effect on the aPTT of adding abciximab to enoxaparin” value (aPTT; [3]) was “not affected; also recorded: did not prolong further the aPTT”.

B2: lipidated tissue factor: lipidated tissue factor (American Diagnostica), initiator of clotting (protein, UniProt P13726 33-295, looked up)
Tissue factor: SGTTNTVAAYNLTWKSTNFKTILEWEPKPVNQVYTVQISTKSGDWKSKCFYTTDTECDLTDEIVKDVKQTYLARVFSYPAGNVESTGSAGEPLYENSPEFTPYLETNLGQPTIQSFEQVGTKVNVTVEDERTLVRRNNTFLSLRDVFGKDLIYTLYYWKSSSSGKKTAKTNTNEFLIDVDKGENYCFSVQAVIPSRTVNRKSTDSPVECMGQEKGEFREIFYIIGAVVFVVIILVIILAISLHKCRKAGVGQSWKENSPLNVS
modifications: lipidated
notes: lipidated tissue factor (American Diagnostica), initiator of clotting
For B2, the “effect on the time to clot” value ([1]; lipidated tissue factor 1.0 to 60 pM, 12 subjects) was “concentration dependent decrease in the time to clot”.
